Tests used:
[1] = test system: cats with hypertrophic cardiomyopathy (HCM) and recent heart failure; assay: Exploratory clinical field study of velagliflozin in cats (Example 2, case 101); type: in vivo; details: for NT-proBNP: cardiac biomarker, screening (D −7) 177; for NT-proBNP / Grade of murmur / Resting respiratory rate / Heart rate / Point of maximum intensity / Presence of arrythmia / Presence of gallop sound / Timing of murmur / Presence of murmur / LA/Ao (left atrium to aorta ratio) / LAD max (mm) (Left atrium measured as right parasternal long-axis): cat 101, 1 mg/kg orally once per day; for BPM (mmHG): cat 101, 1 mg/kg bodyweight orally once per day, screening (D −7) 128; for Grade of murmur: screening (D −7) 4; for Resting respiratory rate: screening (D −7) 28; for Heart rate: screening (D −7) 140; for Point of maximum intensity: screening (D −7) left apical; for Presence of arrythmia / Presence of gallop sound: screening (D −7) no; for Timing of murmur: screening (D −7) systolic; for Presence of murmur: screening (D −7) yes; for LA/Ao (left atrium to aorta ratio) / LAD max (mm) (Left atrium measured as right parasternal long-axis): echocardiography; for LA/Ao (left atrium to aorta ratio): screening (D −7) 1.63; for LAD max (mm) (Left atrium measured as right parasternal long-axis): screening (D −7) 16.3
Excerpt: In an exploratory clinical field study (prospective, baseline controlled, open label and multi-site) under real world conditions, four cats were screened for eligibility for compassionate use of velagliflozin to treat cardiomyopathies and heart failure in cats. […] Due to non-compliance to treatment regime of one pet owner only one cat remained in the study over the complete planned time period of 90 days. Clinical symptoms (evaluated in a physical examination according to Good Veterinary Practice), echocardiographic parameters (always done by the same person at each visit and according to the ACVIM consensus statement guidelines for the classification, diagnosis, and management of cardiomyopathies in cats), blood parameters (evaluated by IDEXX Bioresearch Laboratories, Germany), number of events (re-occurrence of heart failure, cardiac related death or euthanasia) and time to event in days were documented at each visit on the respective Case Report Form.
Case 101 was a 10 years old, female spayed Maine Coon cat, diagnosed with hypertrophic cardiomyopathy (HCM) and previous congestive heart failure.
LA (Left atrium dimension measured as right parasternal short-axis); Ao (Aortic root diameter); LA/Ao, left atrium to aorta ratio; IVSd (interventricular septal end diastolic dimension, i.e. the thickness of the interventricular septum); LAD (Left atrium measured as right parasternal long-axis)

[2] = test system: cat patients with every possible phenotype of cardiomyopathy (HCM, RCM, UCM, DCM and ARVC); assay: Clinical field study in client-owned cat patients with cardiomyopathy (Example 1); type: in vivo; details: 1 mg/kg bodyweight orally once daily
Experimental: Client-owned cat patients (older than 1 year) with every possible phenotype of cardiomyopathy (HCM, RCM, UCM, DCM and ARVC) with or without clinical symptoms (e.g. congestive heart failure) are treated orally and once daily with a velagliflozin dosage of 1 mg/kg bodyweight.
During the study period the body weight, body condition score, blood pressure and the cardiovascular system (including heart rates, rhythm, presence of gallop sound or murmur and intensity) are examined on a regular basis during the visits at the site by the investigator. Additionally, thoracic radiographs (in the right lateral and dorso ventral view), echocardiography (including LV septal & free wall thickness, LVIDD, LVIDS (FS %), LA/Ao, LAD, ejection fraction) and electrocardiography are performed. In order to obtain an overview as complete as possible regular blood tests include a complete hematology (white blood cells (WBC), WBC differential, red blood cells, hemoglobin, hematocrit, Heinz bodies, platelet count), a biochemistry panel (total protein, Albumin, Globulin, Alkaline phosphatase (ALP), Alanine transaminase (ALT), Aspartate transaminase (AST), Total bilirubin, Creatinine, Blood urea nitrogen or urea (BUN), Calcium, Sodium, Potassium, Chloride, Phosphorus, Glucose, Cholesterol, Triglycerides, Fructosamine), the measurement of total T4, ketone bodies and cardiac biomarkers (Plasma NT-pro BNP, Cardiac troponin I, ST2).
Variables of interest are the number of events defined as cardiac death, cardiac related euthanasia and (re-) occurrence of congestive heart failure and the time to event (survival time of the cat patients).

[3] = Plasma NEFA, cholesterol and BHB in cats before and after four week treatment (FIG. 1); type: in vivo, cat; details: end of four week treatment period (post) vs pre, versus control
Excerpt: A significant treatment effect, an increase in blood lipids (NEFA, cholesterol) and plasma concentrations of BHB is noted.

[4] = cat 101, treatment period Day 1 until Day 90, 1 mg/kg orally once per day
[5] = compared to placebo on top of standard of care

## N#Cc1ccc([C@@H]2O[C@H](CO)[C@@H](O)[C@H](O)[C@H]2O)cc1Cc1ccc(C2CC2)cc1 [velagliflozin, Velagliflozin]
[1]; Visit 2 (D 45)
  NT-proBNP: 104 pmol/L
  BPM (mmHG): 136 mmHG
  Grade of murmur: 3
  Resting respiratory rate: 34
  Heart rate: 180
  Point of maximum intensity: left apical
  Presence of arrythmia: no
  Presence of gallop sound: no
  Timing of murmur: systolic
  Presence of murmur: yes
  LA/Ao (left atrium to aorta ratio): 1.36
  LAD max (mm) (Left atrium measured as right parasternal long-axis): 13.8 mm
[1]; Visit 3 (D 90)
  NT-proBNP: 39 pmol/L
  BPM (mmHG): 124 mmHG
  Grade of murmur: 2
  Resting respiratory rate: 34
  Heart rate: 176
  Point of maximum intensity: left apical
  Presence of arrythmia: no
  Presence of gallop sound: no
  Timing of murmur: systolic
  Presence of murmur: yes
  LA/Ao (left atrium to aorta ratio): 1.07
  LAD max (mm) (Left atrium measured as right parasternal long-axis): 12.6 mm
[1]; cat 101, D −7 to D 90
  echocardiographic parameters (Table 2), cardiac biomarker (Table 3) and abnormal heart murmur over the treatment period: improved continuously
[1]; cat 101, end of 90 day study
  general health at study termination: good general health
[1]; [4]
  adverse event: no adverse event
  re-occurrence of heart failure or pulmonary oedema: no heart failure or pulmonary oedema re-occurred
[2]; compared to placebo on top of SoC
  clinical parameters (e.g. appetite, activity level and breathing): improve significantly
[2]; [5]
  survival time: significant and clinically relevant prolongation
  time to event (cardiac death/euthanasia and (re-)occurrence of congestive heart failure): significant and clinically relevant prolongation
[3]
  plasma cholesterol: increase
  plasma concentrations of beta-hydroxybutyrat (BHB): increase
  plasma non-esterified fatty acids (NEFA): increase
